From patent publication US20230233576A1, “ECLITASERTIB FOR USE IN TREATING CONDITIONS INVOLVING SYSTEMIC HYPERINFLAMMATORY RESPONSE” (priority 2020, published 2023)
Where “and” joins values, the source holds several entries; their conditions need not be identical. Identical values can stand only once. Like-named read-outs stand apart in the source and are kept apart here.

Legend:
[1] = system: C-reactive protein (CRP) levels; test: Phase 1b severe COVID-19 study: CRP level; format: in vivo, human; details: 600 mg; for CRP raw data Mean / CRP relative change from baseline Mean / CRP raw data Median / CRP relative change from baseline Median: observed; for CRP raw data Mean / CRP relative change from baseline Mean: no imputation
[2] = Phase 1b severe COVID-19 study: pharmacokinetics (plasma concentrations, Bayesian population PK); format: in vivo, human; details: for AUC(0-t) / Cmax: human, oral, 300 mg
Protocol: RIPK1 Inhibitor concentrations at selected time points over the two weeks of treatment were summarized by descriptive statistics. PK parameters such as Cmax, tmax, and AUC were calculated by a Bayesian analysis: the main results are presented in Section 5.2.
Descriptive statistics on plasma concentration of RIPK1 Inhibitor were analyzed by the Sponsor's Biostatistics Department.
Plasma concentrations of RIPK1 Inhibitor was listed and summarized by arithmetic mean, geometric mean, standard deviation (SD), standard error of the mean (SEM), coefficient of variance (%) (CV), minimum, median, maximum, and number of observations by timepoints. When applicable, relevant data were summarized by route: i.e., oral and oral gavage, and timepoints.
The pharmacokinetic parameters in participants with severe COVID-19 were assessed by Bayesian analysis using a POP population PK model (P0H0757) developed in other Phase 1 studies.
PK parameters were determined for 46 participants (one participant was excluded because all plasma concentrations were BLOQ). A summary of descriptive statistics on RIPK1 Inhibitor plasma AUC0-12, Cmax, and Ctrough over 2 weeks of treatment are presented in Table 43.

[3] = non-human primate toxicology studies; format: in vivo; details: up to 29 days and up to 500 mg/kg/day
[4] = system: SIRS; test: acute mouse model of SIRS; format: in vivo
Excerpt: The RIPK1 Inhibitor was studied in an acute mouse model of SIRS. […] There is also rationale that vascular permeability and endothelial dysfunction contribute to SIRS/shock and lethality. […] Additional clinical evidence for the role of RIPK1 in driving systemic inflammation comes from evidence in a rare population of patients that have a mutation in RIPK1 that blocks caspase-mediated cleavage and leads to hyperactivation of this kinase. These patients have periodic fevers with coinciding elevations of cytokines including IL-6 and elevated levels of pRIPK1 in their PBMCs. Patient-derived cells are responsive to RIPK1 kinase inhibition, and some patients are responsive to anti-IL-6 therapy.

[5] = Day 03, MMRM, LOCF, Efficacy population
[6] = Day 05, MMRM, LOCF, Efficacy population
[7] = Day 07, MMRM, LOCF, Efficacy population
[8] = Day 15, MMRM, LOCF, Efficacy population

CN1C(=O)[C@@H](NC(=O)c2nnc(Cc3ccccc3)[nH]2)COc2cccnc21 [RIPK1 Inhibitor, (S)-5-benzyl-N-(5-methyl-4-oxo-2,3,4,5-tetrahydropyrido[3,2-b][1,4]oxazepin-3-yl)-4H-1,2,4-triazole-3-carboxamide]
Percent change from baseline in CRP, point estimate [1, 5]: −12.85%
Relative change from baseline in CRP, point estimate (geometric means) [1, 5]: 0.87
CRP raw data Mean ([1]; Day 3, Efficacy population): 59.4 mg/L
CRP relative change from baseline Mean ([1]; Day 3, Efficacy population): 0.58 and 0.581
CRP raw data Median ([1]; Day 3, Efficacy population): 44.4 mg/L
CRP relative change from baseline Median ([1]; Day 3, Efficacy population): 0.384
relative change from baseline in CRP, RIPK1 Inhibitor versus placebo ratio ([1]; Day 3, with imputation of missing data): 0.91
relative change from baseline in CRP, RIPK1 Inhibitor versus placebo ratio ([1]; Day 3, without imputation of missing data): 0.92
Percent change from baseline in CRP, point estimate [1, 6]: −51.43%
Relative change from baseline in CRP, point estimate (geometric means) [1, 6]: 0.49
CRP raw data Mean ([1]; Day 5, Efficacy population): 37.7 mg/L
CRP relative change from baseline Mean ([1]; Day 5, Efficacy population): 0.37 and 0.368
CRP raw data Median ([1]; Day 5, Efficacy population): 24.2 mg/L
CRP relative change from baseline Median ([1]; Day 5, Efficacy population): 0.195
relative change from baseline in CRP, RIPK1 Inhibitor versus placebo ratio ([1]; Day 5, with imputation of missing data): 0.70
relative change from baseline in CRP, RIPK1 Inhibitor versus placebo ratio ([1]; Day 5, without imputation of missing data): 0.73
mean of relative change from baseline in CRP ([1]; Day 7, LOCF imputation): 0.315
median of relative change from baseline in CRP ([1]; Day 7, LOCF imputation): 0.165
Percent change from baseline in CRP, point estimate [1, 7]: −64.81%
Relative change from baseline in CRP, point estimate (geometric means) [1, 7]: 0.35
ratio of the adjusted relative change from baseline in CRP, RIPK1 Inhibitor vs placebo (point estimate) ([1]; Day 7, MMRM, LOCF, Efficacy population, below 1 = larger decrease than placebo): 0.85
observed mean of CRP ([1]; Day 7, missing values imputed with LOCF): 28.1 mg/L
CRP raw data Mean ([1]; Day 7, Efficacy population): 24.2 mg/L
CRP relative change from baseline Mean ([1]; Day 7, Efficacy population): 0.289
CRP raw data Median ([1]; Day 7, Efficacy population): 14.0 mg/L
CRP relative change from baseline Median ([1]; Day 7, Efficacy population): 0.119
Percent change from baseline in CRP, point estimate [1, 8]: −71.76%
Relative change from baseline in CRP, point estimate (geometric means) [1, 8]: 0.28
CRP raw data Mean ([1]; Day 15, Efficacy population): 29.2 mg/L
CRP relative change from baseline Mean ([1]; Day 15, Efficacy population): 0.380
CRP raw data Median ([1]; Day 15, Efficacy population): 9.6 mg/L
CRP relative change from baseline Median ([1]; Day 15, Efficacy population): 0.092
median time for 50% decrease in CRP level relative to baseline ([1]; Kaplan-Meier, Efficacy population): 3 days
participants with 50% decrease from baseline in CRP ([1]; by Day 3): 69.2%
steady state reached on ([2]; 300 mg BID for up to 14 days, severe COVID-19): 3 days
exposure difference between male and female ([2]; 300 mg BID, severe COVID-19): No obvious exposure difference
higher AUC0-12h in patients<85.6 kg as compared to ≥85.6 kg ([2]; 300 mg BID, severe COVID-19): 14%
Ctrough, mean (SD) ([2]; 300 mg BID, steady state (Day 3), plasma, severe COVID-19, Bayesian population PK): 2025 (783) ng/mL
Ctrough ([2]; Day 1 (n = 46), Mean (SD), 300 mg BID, plasma, participants with severe COVID-19, Bayesian population PK analysis): 1457 (442) ng/mL
Ctrough ([2]; Day 3 (n = 42), Mean (SD), 300 mg BID, plasma, participants with severe COVID-19, Bayesian population PK analysis): 2025 (783) ng/mL
Ctrough ([2]; Day 7 (n = 26), Mean (SD), 300 mg BID, plasma, participants with severe COVID-19, Bayesian population PK analysis): 2142 (838) ng/mL
Ctrough ([2]; Day 14 (n = 10), Mean (SD), 300 mg BID, plasma, participants with severe COVID-19, Bayesian population PK analysis): 2524 (875) ng/mL
AUC(0-t) ([2]; plasma, 300 mg BID, steady state (Day 3), plasma, severe COVID-19, Bayesian population PK, read-out: AUC0-12h, mean (SD)): 42200 ng·h/mL
Cmax ([2]; plasma, 300 mg BID, steady state (Day 3), plasma, severe COVID-19, Bayesian population PK, read-out: Cmax, mean (SD)): 5170 ng/mL
AUC(0-t) ([2]; plasma, Day 1 (n = 46), Mean (SD), 300 mg BID, plasma, participants with severe COVID-19, Bayesian population PK analysis, read-out: AUC0-12): 28200 ng·h/mL
Cmax ([2]; plasma, Day 1 (n = 46), Mean (SD), 300 mg BID, plasma, participants with severe COVID-19, Bayesian population PK analysis, read-out: Cmax): 3680 ng/mL
AUC(0-t) ([2]; plasma, Day 3 (n = 42), Mean (SD), 300 mg BID, plasma, participants with severe COVID-19, Bayesian population PK analysis, read-out: AUC0-12): 42200 ng·h/mL
Cmax ([2]; plasma, Day 3 (n = 42), Mean (SD), 300 mg BID, plasma, participants with severe COVID-19, Bayesian population PK analysis, read-out: Cmax): 5170 ng/mL
AUC(0-t) ([2]; plasma, Day 7 (n = 26), Mean (SD), 300 mg BID, plasma, participants with severe COVID-19, Bayesian population PK analysis, read-out: AUC0-12): 43800 ng·h/mL
Cmax ([2]; plasma, Day 7 (n = 26), Mean (SD), 300 mg BID, plasma, participants with severe COVID-19, Bayesian population PK analysis, read-out: Cmax): 5340 ng/mL
AUC(0-t) ([2]; plasma, Day 14 (n = 10), Mean (SD), 300 mg BID, plasma, participants with severe COVID-19, Bayesian population PK analysis, read-out: AUC0-12): 48400 ng·h/mL
Cmax ([2]; plasma, Day 14 (n = 10), Mean (SD), 300 mg BID, plasma, participants with severe COVID-19, Bayesian population PK analysis, read-out: Cmax): 5630 ng/mL
safety concerns in toxicology studies [3]: did not raise any safety concerns
SIRS induction [4]: dose-dependently blocked and at the highest dose completely abolished
